What all share (assay): biochemical
Holding throughout (type): biochemical
Holding throughout (details): for activity at 1 µM: pH 5.5, read-out: Sphingomyelinase Activity (%)

Assay [1] has as its target T1, Bacillus cereus-SMase (Bacillus cereus, UniProt P11889).
In assay [2] the target is T1, Bacillus cereus-SMase. The protocol:
Experiment 3: Influence of Compound (1a) and Compound (1b) on the ^14C-Sphingomyelin (^14C-Sphingomyelin) Decomposition Activity of Bacillus cereus-SMase
(§1) (i) Solution of Compound (1a)
(§2) Compound (1a) was dissolved in MeOH and adjusted to 1.7 mM and 17 mM.
(§3) (ii) Solution of Compound (1b)
(§4) Compound (1b) was dissolved in MeOH and adjusted to 1.7 mM and 17 mM.
(iii) Preparation of TX-Buffer
0.5 g of Triton X-100 was dissolved in 100 ml of 0.02 M TB.
[Method] 30 ng/ml Bacillus cereus-SMase was mixed with the solution of Compound (1a) with each concentration or the solution of Compound (1b) with each concentration, and the mixture was adjusted with TX-buffer (pH 5.5) to a total volume of 200 μl and pre-treated for 10 minutes at 37° C., after which 10 μl of ^14C-sphingomyelin was added to the reaction mixture, and the resulting mixture was incubated for 30 minutes at 37° C. 600 μl of a solvent to stop the reaction (stop solution; CHCl3:MeOH=1:2) was added to the reaction mixture and the resulting mixture was stirred for 30 seconds twice, and centrifuged for 20 minutes at 2,000 rpm, after which the upper layer was measured using a liquid scintillation counter.
The source holds these as a separate data set.

The target in assay [3] is T1, Bacillus cereus-SMase. The protocol: Preparation of Sphingomyelin-Liposome (SM-Liposome)
The sphingomyelin (SM), cholesterol, and CF solution used were as follows:
SM: sphingomyelin from bovin brain, code: 32156-74
Cholesterol: Nakarai code: 08721-75
CF solution: 5(6)-carbosyfluorescein; SIGMA C8166, FW=460.4
About 100 μl of 1 N sodium hydroxide (NaOH) was added to CF (27 mg/3 ml, DW) to prepare a CF solution. At this time, NaOH was added to give a pH of 7 to 8 as measured by a pH test paper.
Liposome Preparation Method
59 μl of a solution obtained by dissolving 2 mg of sphingomyelin (SM) in 160 μl of a mixed solvent of chloroform (CHCl3) and methanol (MeOH) (CHCl3:MeOH=2:1) was mixed with 20 μl of a solution obtained by dissolving 19.3 mg of cholesterol in 1 ml of CHCl3; the mixture was homogeneously spread to the bottom of a glass test tube while the CHCl3 and MeOH were distilled under nitrogen, and dried in a desiccator for 30 minutes. The CF solution was warmed to 55° C., and 80 μl of the CF solution was added with stirring to the SM from which the solvent was distilled (the molar ratio of […]: 1:1), and a procedure of placing the mixture in a water bath at 55° C. and stirring the mixture was repeated three times at 30-second intervals. A suitable amount of TBS was added, the mixture was centrifuged for 20 minutes at 15,000 rpm and 4° C., and the supernatant was removed. A suspension of the resulting product in 300 μl of TBS was used as a liposome.
Experiment 2: Influence of Compound (1a) and Compound (1b) on SM-Liposome Degradation Activity of Bacillus cereus-SMase
as §1, §2, §3, §4
[Method] Bc-SMase (50 ng/ml) was mixed with the solution of Compound (1a) with each concentration or the solution of Compound (1b) with each concentration, and the mixture was adjusted with GTBS (pH 5.5) to a total volume of 180 μl and pre-treated for 10 minutes at 37° C., after which 20 μl of the SM-liposome was added to the resulting reaction mixture and incubated for 30 minutes at 37° C. The reaction mixture was measured using a fluorometer (Corona Electric Co., Ltd.; MTP32 Microplate Reader, Ex490, Em530).
This is another data set of the same source.

Consider two molecules from patent US8093395B2 (priority 2007, dated 2012).

Structures are written as SMILES. Read-outs that look alike come from different tables or passages of the source.

T1 sequence (P11889 28-333): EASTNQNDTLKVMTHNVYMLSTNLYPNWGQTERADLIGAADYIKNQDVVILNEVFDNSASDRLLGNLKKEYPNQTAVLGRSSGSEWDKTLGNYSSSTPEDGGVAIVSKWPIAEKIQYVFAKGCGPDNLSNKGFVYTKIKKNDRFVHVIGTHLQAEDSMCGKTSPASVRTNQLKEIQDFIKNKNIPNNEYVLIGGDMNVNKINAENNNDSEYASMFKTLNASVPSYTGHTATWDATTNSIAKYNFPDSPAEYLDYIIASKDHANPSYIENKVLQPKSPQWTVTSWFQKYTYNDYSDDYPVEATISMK

For `CCCCCCCCCCCCC/C=C/[C@@H](OCc1cccc(-c2ccccn2)n1)C(CO)NC(=O)CCCCC` (stereo partly drawn) [Compound (1b)], the “inhibitory effect compared with Compound (1a)” value in assay [1] (1 to 100 μM, sheep erythrocyte hemolysis) was “did not show as potent an inhibitory effect as Compound (1a)”; in assay [2] (1 to 100 μM, 14C-sphingomyelin decomposition) it was “did not show as potent an inhibitory effect as Compound (1a)”; in assay [3] (1 to 100 μM, SM-liposome degradation), “did not show as potent an inhibitory effect as Compound (1a)”. The activity at 1 µM in assay [1] was 96.2 ± 2.7%; in assay [2] it was 98.2 ± 2.3%; in assay [3] it was 99.1 ± 0.3%.
For `CCCCCCCCCCCCC/C=C/[C@@H](O)C(COCc1cccc(-c2ccccn2)n1)NC(=O)CCCCC` (stereo partly drawn) [Compound (1a)], the “sphingomyelinase activity was inhibited by (text summary of Table 1)” value in assay [1] (100-μM solution, sheep erythrocyte hemolysis) is reported as “about 30%”. In addition, the activity at 1 µM in assay [1] came to 98.2 ± 1.4%; in assay [2], 98.6 ± 1.3%; in assay [3], 99 ± 0.2%. Also, the “sphingomyelinase activity was inhibited by (Table 3)” value in assay [2] (100-μM solution, 14C-sphingomyelin decomposition) is listed as “about 25%”. Further, the “inhibition of sphingomyelinase activity (text summary of Table 2)” value in assay [3] (100-μM solution, SM-liposome degradation) was “substantially completely inhibited”.
